The record followed here is patent publication EP0293880B1, “Antihyperlipidemic and antiatherosclerotic urea compounds” (priority 1987, dated 1988).

Assay [1] addresses acyl-CoA:cholesterol acyl-transferase (ACAT). The assay can be described thus: In vitro ACAT inhibition test (radio-labeled cholesterol oleate formed from radio-labeled oleic acid in rabbit intestinal microsomes). It is filed as biochemical. To be noted: tissue preparation containing rabbit intestinal microsomes; concentration required to inhibit 50% expression of the enzyme; read-out: IC₅₀. As for the experimental part: The ability of representative compounds of the present invention to inhibit ACAT was measured using an in vitro test more fully described in Field, F. J. and Salone, R. G., Biochemica et Biophysica 712: 557-570 (1982). The test assesses the ability of a test compound to inhibit the acylation of cholesterol by oleic acid by measuring the amount of radio-labeled cholesterol oleate formed from radio-labeled oleic acid in a tissue preparation containing rabbit intestinal microsomes. The data appear in Table 1 where they are expressed as IC₅₀ values; i.e. the concentration of test compound required to inhibit 50% expression of the enzyme.

A short description of assay [2]: In vivo screen PCC (cholesterol-fed rats, total blood cholesterol). Also on record: species or system male Sprague-Dawley rats. To be noted: after one week; for % Change: change of total blood cholesterol versus control, 0.05% of the test drug in the diet; for Total Blood Cholesterol: rats on chow diet with 5.5% peanut oil, 1.5% cholesterol, 0.3%-0.5% cholic acid, 0.05% of the test drug admixed into the diet. The source says:
In one in vivo screen, designated PCC, male Sprague-Dawley rats (approximately 200 g body weight) are randomly divided into groups and provided ad libidum a regular chow diet (Purina No. 5002, Ralston Purina Co., 711 West Fuesser Road, Mascoutah, Illinois, 62224, USA), supplemented with 5.5% peanut oil, 1.5% cholesterol, and 0.3%-0.5% cholic acid, together with 0.05% of the test drug which is admixed into the diet. After one week the animals are etherized and a blood sample is taken from the heart and mixed with 0.14% ethylenediamine tetraacetic acid (EDTA) to measure the total cholesterol.

For `Cc1cccc(C)c1NC(=O)NC1(c2ccccc2)CCCC1` [Example 1, N-(2,6-dimethylphenyl)-N'-(1-phenylcyclopentyl)urea], the IC50 in assay [1] was 80 nM.

Turning to `CCc1cccc(CC)c1NC(=O)NC1(c2ccccc2)CCC1` [Example 2, N-(2,6-diethylphenyl)-N'-(1-phenylcyclobutyl)urea], the IC50 in assay [1] was found to be 230 nM.

As to `CCc1cccc(CC)c1NC(=O)NC1(c2ccccc2)CCCC1` [Example 3, N-(2,6-diethylphenyl)-N'-(1-phenylcyclopentyl)urea], in assay [1], the IC50 came out at 120 nM.

`CCc1cccc(CC)c1NC(=O)NCC1(c2ccccc2)CC1` [Example 4, N-(2,6-diethylphenyl)-N'-[(1-phenylcyclopropyl)methyl]urea]: the IC50 in assay [1] came to 88 nM.

Consider `COc1cc(OC)c(NC(=O)NC2(c3ccccc3)CCCC2)c(OC)c1` [Example 5, N-(1-phenylcyclopentyl)-N'-(2,4,6-trimethoxyphenyl)urea], for which, in assay [1], the IC50 is 700 nM.

Consider `Cc1cccc(C)c1NC(=O)NC1(c2cccs2)CCCCC1` [Example 6, N-(2,6-dimethylphenyl)-N'-[1-(2-thienyl)cyclohexyl]urea], for which the IC50 in assay [1] amounted to 130 nM.

As to `CCc1cccc(CC)c1NC(=O)NC1(c2cccs2)CCCCC1` [Example 7, N-(2,6-diethylphenyl)-N'-[1-(2-thienyl)cyclohexyl]urea], the IC50 in assay [1] stood at 48 nM.

As for `CC(C)c1cccc(C(C)C)c1NC(=O)NC1(c2cccs2)CCCCC1` [Example 8, N-[2,6-bis(1-methylethyl)]-N'-[1-(2-thienyl)cyclohexyl]urea], the IC50 in assay [1] came to 43 nM. Moreover, in assay [2], the “% Change” value is given as -69% and the “Total Blood Cholesterol” value is 60 (Control = 181) mg/dl.

With `CCc1cccc(CC)c1NC(=O)NCC1(c2ccccc2)CCCCC1` [Example 9, N-(2,6-diethylphenyl)-N'-[(1-phenylcyclohexyl)methyl]urea], in assay [1], the IC50 was determined as 51 nM.

In the case of `Cc1cccc(C)c1NC(=O)NCC1(c2ccccc2)CCCC1` [Example 10, N-(2,6-dimethylphenyl)-N'-[(1-phenylcyclopentyl)methyl]urea], the IC50 in assay [1] is 154 nM.

On to `Cc1cccc(C)c1NC(=O)NCC1(c2ccccc2)CCCCC1` [Example 11, N-(2,6-dimethylphenyl)-N'-[(1-phenylcyclohexyl)methyl]urea], for which, in assay [1], the IC50 came out at 81 nM.

As to `CCc1cccc(CC)c1NC(=O)NCC1(c2ccccc2)CCCC1` [Example 12, N-(2,6-diethylphenyl)-N'-[(1-phenylcyclopentyl)methyl]urea], the IC50 in assay [1] is 15 nM.

In the case of `CC(C)c1cccc(C(C)C)c1NC(=O)NCC1(c2ccccc2)CCCC1` [Example 13, N-[2,6-bis(1-methylethyl)phenyl]-N'-[(1-phenylcyclopentyl)methyl]urea], in assay [1], the IC50 stood at 17 nM. Also, in assay [2], the “% Change” value was -73% and the “Total Blood Cholesterol” value is reported as 61 (Control = 224) mg/dl.

With `CC(C)c1cccc(C(C)C)c1NC(=O)NCC1(c2ccccc2)CCCCC1` [Example 14], the IC50 in assay [1] was 21 nM.

Regarding `Cc1cccc(C(C)C)c1NC(=O)NC1(c2cccs2)CCCCC1` [Example 15, N-[2-methyl-6-(1-methylethyl)-phenyl]-N'-[1-(2-thienyl)cyclohexyl]urea], the IC50 in assay [1] is 230 nM.

`Cc1cccc(C(C)(C)C)c1NC(=O)NC1(c2cccs2)CCCCC1` [Example 16, N-[2-(1,1-dimethylethyl)-6-methyl-phenyl]-N'-[1-(2-thienyl)cyclohexyl]urea]: in assay [1], the IC50 amounted to 256 nM.

Consider `Cc1cccc(C(C)C)c1NC(=O)NCC1(c2ccccc2)CCCCC1` [Example 17, N-[2-methyl-6-(1-methylethyl)-phenyl]-N'-[(1-phenylcyclohexyl)methyl]urea], for which the IC50 in assay [1] was determined as 58 nM.

As for `Cc1cccc(C(C)(C)C)c1NC(=O)NCC1(c2ccccc2)CCCCC1` [Example 18, N-[2-(1,1-dimethylethyl)-6-methylphenyl]-N'-[(1-phenylcyclohexyl)methyl]-urea], in assay [1], the IC50 was 54 nM.

Consider `CCc1cccc(C(C)C)c1NC(=O)NCC1(c2ccccc2)CCCCC1` [Example 19, N-[2-ethyl-6-(1-methylethyl)-phenyl]-N'-[(1-phenylcyclohexyl)methyl]urea], for which the IC50 in assay [1] was determined as 20 nM.

As for `Cc1cccc(C(C)C)c1NC(=O)NCC1(c2ccccc2)CCCC1` [Example 20, N-[2-methyl-6-(1-methylethyl)-phenyl]-N'-[(1-phenylcyclopentyl)methyl]urea], the IC50 in assay [1] was 16 nM.

`Cc1cccc(C(C)(C)C)c1NC(=O)NCC1(c2ccccc2)CCCC1` [Example 21, N-[2-(1,1-dimethylethyl)-6-methylphenyl]-N'-[(1-phenylcyclopentyl)methyl]-urea]: the IC50 in assay [1] came out at 18 nM.

With `CCc1cccc(C(C)C)c1NC(=O)NCC1(c2ccccc2)CCCC1` [Example 22, N-[2-ethyl-6-(1-methylethyl)-phenyl]-N'-[(1-phenylcyclopentyl)methyl]urea], the IC50 in assay [1] came out at 25 nM.

For `O=C(Nc1ccc(F)cc1F)NC1(c2cccs2)CCCCC1` [Example 23, N-(2,4-difluorophenyl)-N'-[1-(2-thienyl)cyclohexyl]urea], the IC50 in assay [1] was 370 nM.

In the case of `O=C(NCC1(c2ccccc2)CCCC1)Nc1ccc(F)cc1F` [Example 24, N-(2,4-difluorophenyl)-N'-[(1-phenylcyclopentyl)methyl]urea], the IC50 in assay [1] is 1280 nM.

On to `O=C(NCC1(c2ccccc2)CCCCC1)Nc1ccc(F)cc1F` [Example 25, N-(2,4-difluorophenyl)-N'-[(1-phenylcyclohexyl)methyl]urea], for which, in assay [1], the IC50 was 790 nM.

On to `O=C(NCC1(c2ccccc2)CCCCC1)Nc1c(Br)cc(F)cc1Br` [Example 26, N-(2,6-dibromo-4-fluorophenyl)-N'-[(1-phenyl-cyclohexyl)methyl]urea], for which the IC50 in assay [1] came out at 39 nM.
